Results taken from patent US11957739B2, “Compositions and methods for treating cancer using RHOA dominant negative forms” (Dana-Farber Cancer Institute, Inc., priority 2017, dated 2024).

Experiments:
[1] = system: CDH1-null cells; test: Ectopic expression of RHOA dominant negative forms in CDH1-null cells; format: cell-based
From the text: (§1) Diffuse Gastric Cancer (DGC) is a highly lethal variant of gastric cancer, which is prone to early invasion and metastasis, and lacks effective molecularly targeted therapies. DGC initiation typically follows loss of tumor suppressor CDH1 which encodes the cellular adhesion protein E-cadherin. Reduction in and/or loss of E-cadherin (CDH1) is the key hallmark of invasive lobular breast cancer and loss-of-function mutations targeting CDH1 are present in 50%-60% of invasive lobular breast cancer and are believed to be an early event often observed in matching lobular carcinoma in situ (McCart Reed et al. (2015) Breast Cancer Res. 17:12). […] These findings indicate that RHOA dominant negative forms can be used as an effective therapy for DGC and lobular breast cancer as well as other cancers with the EMT phenotype.

[2] = system: cells with intact CDH1; test: Ectopic expression of RHOA dominant negative forms in cells with intact CDH1; format: cell-based
From the text: as §1

[3] = system: CDH1-null stomach organoids; test: RHOA ectopic expression in isogenic stomach organoids after tamoxifen-induced E-cadherin loss; format: cell-based, mouse; details: ectopic expression by lentivirus; Mist1CreER, Cdh1F/F organoids treated with tamoxifen to induce E-cadherin loss
Description: Mist1CreER, Cdh1^F/F organoids were infected with plx307 lenti-EGFP/RHOA-WT/RHO-T19N virus, and the stably infected organoids were selected by adding puro for 1 week. The cells were then treated with or without tamoxifen to activate Cre to induce E-cadherin loss. The RHOA ectopic expression and E-Cadherin loss were validated both Western blot and Tomato/GFP color switch determinations.
Mist1-CreERT2, Cdh1flox/flox, Tomation/GFP mice, which carry conditional alleles with loxP sites flanking exon 2-3 of Cdh1, were kindly provided by Timothy C. Wang at Columbia University. Cre recombinase was activated by oral administration of tamoxifen (Sigma, T5648) TAM (1-5 mg/0.2 ml corn oil, as indicated). All animal studies and procedures were approved by the ethics committees at Dana-Farber Cancer Institute.
The protocol as previously described in Miyoshi et al. (2013) Nat. Prot. 8:2471-2482 was performed as follows: Euthanize mice using a chemical reagent, open the stomach longitudinally and roughly remove contents on the paper towel. Rinse the tissue with ice cold PBS in a 90 mm petri dish, then wash the tissue with […] ice cold PBS in a 50 ml centrifuge tube by vigorous shaking. After washing, place the tissue in a 35 mm petri dish and bring the dish to a biological hood and mince the tissue with fine scissors. […]

[4] = system: CDH1-null breast epithelial MCF10A cells; test: Cell titer glo assay in MCF10A-CDH1-KO cells with Dox-inducible RHOA mutant virus; format: cell-based; details: Dox-inducible expression
Description: (§2) Isogenic MCF10A-CDH1-intact cells were infected with different constitutive RHOA mutant virus and the stably infected cells were selected by adding puro for 1 week. The cells were then plated in 96-well plates for analysis using a cell titer glo assay. The MCF10A-CDH1-K0 cells were infected with different Dox-inducible RHOA mutant viruses and the stably-infected cells were selected by adding puro for 1 week. The cells were then plated in 96-well plates with Dox induction for cell titer glo assay analysis.
(§3) Cell viability assay was performed by following the protocol of CellTiter-Glo® (Promega, Cat #G7570).

[5] = system: CDH1-intact MCF10A cells; test: Cell titer glo assay in isogenic MCF10A-CDH1-intact cells with constitutive RHOA mutant virus; format: cell-based; details: constitutive expression
Description: as §2, §3

[6] = system: NUGC4 tumor; test: NUGC4 xenograft tumor growth with Dox-induced mutant RHOA expression; format: in vivo; details: E-cadherin loss DGC cells in flank of nude mice; Dox food after 2 weeks; P<0.0001 Ctrl vs T19N
Description: (§4) Diffuse gastric cancer (DGC) NUGC4 cells were confirmed for total E-cadherin loss by Western blot analysis. The cells were then stably infected with Dox-inducible lenti-RHOA virus using puro selection. Three million NUGC4 cells were injected into the flank of nude mice. After 2 weeks, regular food was changed to food with Dox in order to induce mutant RHOA expression. N=3 mice for each group. P<0.0001: Ctrl-VS-T19N.
(§5) The 4-week-old male nude mice (BALB/cA-nu (nu/nu)) were injected subcutaneously at each flank with cells infected with dox inducible control or RHOA mutant virus. All animals were maintained and used in accordance with the guidelines of the Institutional Animal Care and Use Committee of Dana-Farber Cancer Institute.

[7] = system: MKN45 tumor; test: MKN45 xenograft tumor growth with Dox-induced mutant RHOA expression; format: in vivo; details: E-cadherin loss diffuse adenocarcinoma cells in flank of nude mice; Dox food after 2 weeks; P<0.0001 Ctrl vs T19N
Description: as §4, with “The diffuse adenocarcinoma MKN45” for “Diffuse gastric cancer (DGC) NUGC4”, “MKN45” for “NUGC4”
as §5

Substance	cell-death in CDH1-null cells [1]	proliferation of CDH1-null cells [1]	inhibition of proliferation and induction of cell-death in cells with intact CDH1 [2]	killing of CDH1-null stomach organoids [3]	killing of CDH1-null MCF10A cells [4]	effect on CDH1-intact MCF10A cells [5]	NUGC4 tumor growth [6]	MKN45 tumor growth [7]
G17E: Human RHOA G17E dominant negative form (SEQ ID NO: 3), ectopically expressed	induction of cell-death	significant inhibition of proliferation	not in cells with intact CDH1					
G17V: Human RHOA G17V dominant negative form (SEQ ID NO: 2), ectopically expressed	induction of cell-death	significant inhibition of proliferation	not in cells with intact CDH1					
RHOA-T19N: Human RHOA T19N dominant negative form (SEQ ID NO: 1), ectopically expressed from lentivirus	induction of cell-death	significant inhibition of proliferation	not in cells with intact CDH1	specifically kills	specifically kills	spares	significantly inhibit	significantly inhibit
